{"source": "paper PMC3790851", "about": "“Improved Mass Spectrometry Assay For Plasma Hepcidin: Detection and Characterization of a Novel Hepcidin Isoform” (PLoS ONE, 2013)", "key": {"[1]": {"experiment": "in vitro", "settings": "for remaining at 4320 h: human", "method": "Serum samples from healthy controls that were used in this study concerned leftover aliquots (stored at −80°C) that were collected in February 2011 [18]. In addition, citrate plasma, heparin plasma, EDTA plasma and serum for stability studies was drawn in the afternoon from healthy volunteers (n = 5), known for having fasted morning hepcidin levels above the lower limit of detection (>0.5 nM) in September 2012. Fresh samples were measured within 2–4 hrs hours after blood drawing and stored in aliquots at various temperatures for prolonged incubation.\nHeparin plasma QC samples (n = 2), high and low (HiQC2011 and LoQC2011), were obtained in November 2011 by pooling sample leftover samples from IC patients and iron-depleted HFE-hemochromatosis patients, respectively. Serum QC samples (n = 2), high and low (HiQC2009 and LoQC2009), were obtained in April 2009 from 2 blood donors from the local blood donation centre. To obtain the high QC sample, serum of one of the donors with a native hepcidin concentration <1 nM was spiked with synthetic hepcidin-25 from Peptide International (PI, Louisville, KY, USA) to a concentration of 9 nM.\nWCX-TOF MS was performed between October 2011 and March 2013 as described previously by a combination of WCX bead-based hepcidin enrichment followed by TOF-MS [6]. As internal standards for quantification were used: i) synthetic hepcidin-24 (custom made Peptide International, 2673.9 Da; [5]); ii) novel custom made heavy hepcidin-25^+40 (see below, Table 1). Mass-to-charge (m/z) spectra were generated by using MALDI-TOF MS (Microflex LT, Bruker Daltonics). Spectra were analyzed by using Bruker Daltonics FlexAnalysis software. A detailed protocol of this method is described in [6]. Total hepcidin concentration was defined as the sum of hepcidin-25, -24, -22, and -20 concentrations.\nUsing the novel heavy hepcidin-25 internal standard, we assessed changes in hepcidin-25 and the smaller isoforms in various samples containing various anticoagulants ex vivo at room temperature (RT), 4°C, −20°C and −80°C. More specifically, changes in hepcidin concentrations relative to those found in freshly collected samples were determined i) at storage at RT and 4°C on day 0 (fresh samples), 1 (14–22 hrs), 2, 3, and 7 days after sampling/storage, ii) at −20°C after 1 week, and after 1, 4 and 6 months of storage and iii) at −80°C at after 6 months of storage. We also assessed the effect of the addition of protease inhibitors on the stability of hepcidin concentrations of heparin plasma of IC patients at RT during a 1 week storage. To this end, before storage we used 1 tablet of protease inhibitor (Complete, Mini, Roche Diagnostics, Mannheim, Germany) solved in 200 µL PBS, of which 20 µL was added to 1 ml plasma. Finally, we used our QC charts to assess the stability of hepcidin concentrations in heparin plasma and serum QC aliquots stored at −80°C for 2 years."}, "[2]": {"target": "T1, green fluorescent protein (GFP)-fused human ferroportin (Homo sapiens, UniProt Q9NP59)", "T1 construct": "expressed in transfected cells", "T1 sequence (Q9NP59 1-571)": "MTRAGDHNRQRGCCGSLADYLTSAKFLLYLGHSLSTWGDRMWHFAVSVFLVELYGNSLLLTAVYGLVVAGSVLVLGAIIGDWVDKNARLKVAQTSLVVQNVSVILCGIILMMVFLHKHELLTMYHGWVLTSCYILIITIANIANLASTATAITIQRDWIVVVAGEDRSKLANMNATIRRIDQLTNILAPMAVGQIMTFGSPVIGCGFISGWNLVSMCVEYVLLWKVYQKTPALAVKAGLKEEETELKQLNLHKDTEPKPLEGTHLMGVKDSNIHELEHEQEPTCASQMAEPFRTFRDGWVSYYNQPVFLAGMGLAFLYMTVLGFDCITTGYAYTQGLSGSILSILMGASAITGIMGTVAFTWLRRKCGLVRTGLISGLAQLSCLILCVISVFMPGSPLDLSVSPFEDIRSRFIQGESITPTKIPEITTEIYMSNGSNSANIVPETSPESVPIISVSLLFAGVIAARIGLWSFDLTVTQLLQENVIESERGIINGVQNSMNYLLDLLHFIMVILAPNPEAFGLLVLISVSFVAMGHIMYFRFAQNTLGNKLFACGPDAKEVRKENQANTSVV", "experiment": "Hepcidin bioactivity assay: GFP-ferroportin internalization and degradation", "format": "cell-based", "settings": "stable cell line, inducible GFP-fused human ferroportin; fluorescence in triplicate wells; four parameter logistic fit; 95% confidence interval: hepcidin-24 126.8 nM - 289.2 nM, hepcidin-25 12.2 nM –17.8 nM; read-out: EC50 for ferroportin internalization and degradation", "from_the_text": "A stable cell line engineered for inducible expression of green fluorescent protein (GFP)-fused human ferroportin was used as a test system to determine hepcidin-24 activity relative to hepcidin-25, 22 and 20. In this cell system, ferroportin internalization and degradation provided a means to quantify hepcidin activity. The assay was implemented basically as described by Nemeth et al., [33] except that fluorescence was quantified in triplicate wells on a microplate reader. To determine EC50 values for hepcidin-25 and hepcidin-24, a curve was fitted by nonlinear regression with a four parameter logistic equation using Prism v5 (GraphPad).\nFigure 5 Hepcidin-mediated ferroportin internalization. Different concentrations of synthetic hepcidin-25, -24, -22 and -20 (indicated in nM on the horizontal axis) were added to the growth medium of a stable cell line that expresses green fluorescent protein-fused ferroportin (GFP-FPN). Hepcidin-mediated GFP-FPN internalization and degradation was quantified by measuring cellular fluorescence levels in arbitrary units."}, "[3]": {"experiment": "Stability of hepcidin in plasma/serum at room temperature (WCX-TOF MS)", "format": "in vitro ADME, human", "method": "Spectra were analyzed by using Bruker Daltonics FlexAnalysis software.\nTo assess the stability of hepcidin in serum and plasma matrices, we kept samples from intensive care patients (n = 20) and healthy controls (n = 5) at room temperature for 0–7 days followed by WCX-TOF MS analysis using the hepcidin-25^+40 internal standard. […] For the samples at day 1 and day 7, the mean decrease in hepcidin-25 for the 5 controls and 20 intensive care patients was 90% (CV, 8% ) and 55% (CV, 23%), respectively (Table 3)."}, "[4]": {"experiment": "in vitro", "settings": "human, heparin plasma", "protocol": "Samples were used for measurement of hepcidin between 4–7 hrs after blood drawing and/or pooled and/or stored in aliquots at various temperatures for prolonged periods of time.\nMass-to-charge (m/z) spectra were generated by using MALDI-TOF MS (Microflex LT, Bruker Daltonics). Spectra were analyzed by using Bruker Daltonics FlexAnalysis software. […] Total hepcidin concentration was defined as the sum of hepcidin-25, -24, -22, and -20 concentrations."}}, "note": "pEC50: −log10 of the molar value."}
{"compound": "CC[C@H](C)[C@@H]1NC(=O)[C@@H](NC(=O)[C@@H](NC(=O)[C@@H]2CCCN2C(=O)[C@H](Cc2ccccc2)NC(=O)[C@H](Cc2c[nH]cn2)NC(=O)[C@@H](NC(=O)[C@@H](N)CC(=O)O)[C@@H](C)O)[C@@H](C)CC)CSSC[C@@H](C(=O)N[C@@H](CCCCN)C(=O)N[C@H](C(=O)O)[C@@H](C)O)NC(=O)[C@@H]2CSSC[C@H](NC(=O)[C@H](Cc3ccccc3)NC1=O)C(=O)N[C@H]1CSSC[C@H](NC(=O)[C@H](CCCCN)NC(=O)[C@H](CO)NC(=O)[C@H](CCCNC(=N)N)NC(=O)[C@H](Cc3c[nH]cn3)NC(=O)[C@@H]3CSSC[C@H](NC(=O)CNC1=O)C(=O)N3)C(=O)NCC(=O)N[C@@H](CCSC)C(=O)N2", "note": "[Hepcidin-25]", "values": [{"measurement": "stable at -80°C for, QC heparin plasma", "setting": "[1]; QC heparin plasma samples, heavy hepcidin internal standard", "result": "at least 1.5 years"}, {"measurement": "stable at -80°C for, QC serum", "setting": "[1]; QC serum samples, former hepcidin-24 internal standard", "result": 2, "unit": "years"}, {"measurement": "Hepcidin level after 6 months at -80°C, EDTA plasma", "setting": "[1]; average, 5 controls, CV 5", "result": 96, "unit": "%"}, {"measurement": "Hepcidin level after 6 months at -80°C, citrate plasma", "setting": "[1]; average, 5 controls, CV 5", "result": 96, "unit": "%"}, {"measurement": "remaining at 4320 h", "setting": "[1]; heparin plasma", "result": 95, "unit": "%"}, {"measurement": "remaining at 4320 h", "setting": "[1]; serum", "result": 94, "unit": "%"}, {"measurement": "average decrease in hepcidin-25 after 6 months at -80°C", "setting": "[1]; serum, heparin, EDTA and citrate plasma, 5 healthy volunteers, not significant", "result": "4–6%"}, {"measurement": "pEC50", "setting": "[2]", "result": 7.83}, {"measurement": "stable at -20°C for", "setting": "EDTA and heparin plasma of 10 intensive care patients and 5 controls", "result": "at least 4 weeks"}, {"measurement": "Hepcidin level after one week at -20°C, EDTA plasma", "setting": "average, % of fresh, 10 IC patients and 5 controls, CV (Hep-25/-24/-22/-20) 11/12/11/28, n = 15/8/6/9, hepcidin-20 unreliable (additional peak)", "result": 96, "unit": "%"}, {"measurement": "hepcidin-25 relative to fresh samples upon freezing", "setting": "heparin samples at 7 days, -20°C, IC + control n = 15, CV 8%", "result": 95, "unit": "%"}, {"measurement": "no significant change at -20°C for", "setting": "serum, heparin, EDTA and citrate plasma of healthy controls (n = 5)", "result": "at least 6 months"}, {"measurement": "Hepcidin level after one week at RT", "setting": "[3]; average, % of fresh sample, 7 days, human heparin plasma, 19 IC patients + 5 controls, results <1.0 nM removed, WCX-TOF MS, hepcidin-25^+40 internal standard, CV (Hep-25/-24/-22/-20/Total) 23/29/29/38/17, n = 24/15/13/18/11", "result": 55, "unit": "%"}, {"measurement": "Hepcidin level after one day at RT", "setting": "[3]; average, % of fresh sample, human heparin plasma, 19 IC patients + 5 controls, results <1.0 nM removed, WCX-TOF MS, hepcidin-25^+40 internal standard, CV (Hep-25/-24/-22/-20/Total) 8/21/14/25/5, n = 24/15/13/18/11", "result": 90, "unit": "%"}, {"measurement": "Hepcidin level after one week at RT, without protease inhibitors", "setting": "[3]; average, % of fresh, 7 days, heparin plasma, 10 IC patients, results <1 nM excluded, CV (Hep-25/-24/-22/-20) 30/31/23/41, n = 10/8/7/8", "result": 48, "unit": "%"}, {"measurement": "Hepcidin level after one day at RT, without protease inhibitors", "setting": "[3]; average, % of fresh, heparin plasma, 10 IC patients, results <1 nM excluded, CV (Hep-25/-24/-22/-20) 13/20/11/11, n = 10/8/7/8", "result": 89, "unit": "%"}, {"measurement": "mean hepcidin-25 level remaining at day 1 at RT, % of fresh", "setting": "[3]; heparin plasma, 5 controls and 20 intensive care patients, CV 8%", "result": 90, "unit": "%"}, {"measurement": "effect of protease inhibitors on hepcidin-25 decrease", "setting": "[3]; heparin samples of IC patients (n = 10), RT", "result": "prevented hepcidin-25 processing to a certain extend but did not block its decrease completely"}, {"measurement": "remaining at 168 h", "setting": "[3]; human, average, % of fresh, 7 days, heparin plasma, 10 IC patients, Complete Mini (Roche), CV (Hep-25/-24/-22/-20) 25/35/9/25, n = 10/8/7/8, read-out: Hepcidin level after one week at RT, with protease inhibitors", "result": 69, "unit": "%"}, {"measurement": "remaining at 1 day", "setting": "[3]; human, average, % of fresh, heparin plasma, 10 IC patients, Complete Mini (Roche), 1 tablet in 200 µL PBS, 20 µL per 1 ml plasma, CV (Hep-25/-24/-22/-20) 8/30/4/14, n = 10/8/7/8, read-out: Hepcidin level after one day at RT, with protease inhibitors", "result": 91, "unit": "%"}, {"measurement": "remaining at 168 h", "setting": "[4]", "result": 99, "unit": "%"}]}
